Molecular target: T1, LRRK2 (Homo sapiens, UniProt Q5S007)
T1 construct: LRRK2-NanoLuc fusion
Experiment: NanoBRET in-cell target engagement, competitive displacement of K-9 tracer in transfected HEK293 cells
Format: cell-based

T1 sequence (Q5S007 whole entry, the tested form may be a part): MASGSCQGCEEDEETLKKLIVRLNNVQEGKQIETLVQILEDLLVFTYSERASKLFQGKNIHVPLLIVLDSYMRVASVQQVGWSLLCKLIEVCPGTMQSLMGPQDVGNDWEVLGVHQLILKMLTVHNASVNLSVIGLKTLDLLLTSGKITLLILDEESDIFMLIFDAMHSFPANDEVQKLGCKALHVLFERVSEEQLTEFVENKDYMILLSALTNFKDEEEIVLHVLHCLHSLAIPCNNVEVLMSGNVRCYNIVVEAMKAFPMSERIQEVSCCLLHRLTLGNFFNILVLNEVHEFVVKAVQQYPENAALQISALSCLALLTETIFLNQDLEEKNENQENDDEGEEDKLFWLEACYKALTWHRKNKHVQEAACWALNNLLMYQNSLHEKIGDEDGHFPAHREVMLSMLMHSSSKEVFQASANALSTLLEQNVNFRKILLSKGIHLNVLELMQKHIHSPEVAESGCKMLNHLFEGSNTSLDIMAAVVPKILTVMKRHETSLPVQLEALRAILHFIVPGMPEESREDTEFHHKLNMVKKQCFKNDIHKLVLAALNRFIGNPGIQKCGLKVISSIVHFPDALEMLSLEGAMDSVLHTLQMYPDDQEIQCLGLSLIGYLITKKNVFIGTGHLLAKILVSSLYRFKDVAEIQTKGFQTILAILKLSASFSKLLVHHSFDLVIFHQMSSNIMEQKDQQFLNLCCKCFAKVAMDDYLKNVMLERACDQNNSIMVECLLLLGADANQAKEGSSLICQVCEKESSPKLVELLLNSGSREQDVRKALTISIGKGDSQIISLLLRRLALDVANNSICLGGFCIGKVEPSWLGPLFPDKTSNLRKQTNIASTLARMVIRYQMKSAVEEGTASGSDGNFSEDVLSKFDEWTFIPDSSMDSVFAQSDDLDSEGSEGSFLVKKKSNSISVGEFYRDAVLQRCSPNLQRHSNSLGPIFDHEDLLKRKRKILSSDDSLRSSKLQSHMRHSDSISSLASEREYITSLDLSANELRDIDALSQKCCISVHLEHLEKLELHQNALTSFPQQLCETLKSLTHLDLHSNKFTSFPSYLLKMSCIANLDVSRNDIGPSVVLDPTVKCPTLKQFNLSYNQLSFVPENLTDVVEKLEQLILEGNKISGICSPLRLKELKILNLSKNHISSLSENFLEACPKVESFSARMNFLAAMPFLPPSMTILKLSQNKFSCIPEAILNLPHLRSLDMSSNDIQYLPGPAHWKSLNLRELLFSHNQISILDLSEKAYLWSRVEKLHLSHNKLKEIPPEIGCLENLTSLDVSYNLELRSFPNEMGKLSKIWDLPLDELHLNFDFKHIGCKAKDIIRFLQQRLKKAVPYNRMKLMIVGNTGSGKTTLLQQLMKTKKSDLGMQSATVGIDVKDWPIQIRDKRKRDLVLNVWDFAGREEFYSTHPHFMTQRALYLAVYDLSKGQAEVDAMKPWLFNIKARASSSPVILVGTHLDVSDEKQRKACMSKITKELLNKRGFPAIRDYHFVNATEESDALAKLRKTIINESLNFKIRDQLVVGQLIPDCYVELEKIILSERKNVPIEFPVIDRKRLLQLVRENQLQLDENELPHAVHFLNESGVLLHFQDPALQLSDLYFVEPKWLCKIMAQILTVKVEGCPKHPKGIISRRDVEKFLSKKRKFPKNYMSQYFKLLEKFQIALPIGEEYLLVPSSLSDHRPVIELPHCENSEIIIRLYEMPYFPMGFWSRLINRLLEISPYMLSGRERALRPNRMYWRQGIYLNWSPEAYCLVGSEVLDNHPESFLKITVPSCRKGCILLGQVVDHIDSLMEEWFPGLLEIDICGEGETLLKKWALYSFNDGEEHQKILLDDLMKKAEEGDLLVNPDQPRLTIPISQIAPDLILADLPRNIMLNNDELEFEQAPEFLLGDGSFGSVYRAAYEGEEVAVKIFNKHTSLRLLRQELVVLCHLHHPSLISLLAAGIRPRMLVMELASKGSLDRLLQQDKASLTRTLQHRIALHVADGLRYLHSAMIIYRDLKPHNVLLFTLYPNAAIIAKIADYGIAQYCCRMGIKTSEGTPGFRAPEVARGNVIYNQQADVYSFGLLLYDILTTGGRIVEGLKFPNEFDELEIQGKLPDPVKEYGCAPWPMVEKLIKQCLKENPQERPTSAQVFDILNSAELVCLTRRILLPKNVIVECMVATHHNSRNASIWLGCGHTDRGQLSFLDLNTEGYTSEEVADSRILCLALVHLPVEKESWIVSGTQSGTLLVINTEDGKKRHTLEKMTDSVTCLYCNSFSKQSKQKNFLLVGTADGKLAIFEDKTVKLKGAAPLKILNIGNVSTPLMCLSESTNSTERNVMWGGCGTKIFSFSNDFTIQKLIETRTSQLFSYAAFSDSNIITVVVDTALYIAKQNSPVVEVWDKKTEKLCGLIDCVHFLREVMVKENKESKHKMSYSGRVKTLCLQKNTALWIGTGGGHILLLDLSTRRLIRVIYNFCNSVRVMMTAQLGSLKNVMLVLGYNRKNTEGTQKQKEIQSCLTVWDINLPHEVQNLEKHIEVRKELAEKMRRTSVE

OSU13
EC50: 216 nM
